Experimental data reported in patent publication US7074420B2, “Cosmetic treatment using a new retinoid” (Avon Products, Inc., priority 2001, dated 2006).

Assay: stability of compositions (lasting white color, no yellowing over time)
Format: physicochemical
Settings: particularly in a stick product form
Source text: This is evidenced by a lasting white color of the present compositions, without the manifestation of yellowing over time, particularly in a stick product form. The present compositions can also be in other cosmetic product forms, such as, for example, an emulsion, a gel, a lip balm, a lip gloss, a lipstick, a lotion, a mask, an ointment, a patch, a pomade, a solution, a spray, or a towelette.

CC(C=CC1=C(C)CCCC1(C)C)=CC=CC(C)=CCO[Si](C)(C)C [retinoxytrimethylsilane]
stability of compositions compared to prior art: more stable compositions than those of the prior art
